Assay results as given in publication PMC6920962, “Unravelling the Skin Secretion Peptides of the Gliding Leaf Frog, Agalychnis spurrelli (Hylidae)” (Biomolecules, 2019).
≈ marks a conversion by molar mass, not a printed value. Where “and” joins values, the source holds several entries; their conditions need not be identical. Equal entries are not always repeated. Where two headings read alike, the source gives them in different places. Marks after values point to notes of the source that are not given here. Ends that are not written are not given here.

Columns and labels:
[1] = test system: Escherichia coli ATCC 25922; parameters: method as in 6 sources, ref Cuesta et al., 2019 (41) ||| ref Charpantier, et al., 1998 (39) ||| ref Raja et al., 2013 (40) ||| ref Reimer et al., 1981 (42) ||| ref 20, 22 = [20]; PMID 17561225; doi:10.1016/j.toxicon.2007.04.017; 20. Conlon J.M. Woodhams D.C. Raza H. Coquet L. Leprince J. Jouenne T. Vaudry H. Rollins-Smith L.A. Peptides with Differential Cytolytic Activity from Skin Secretions of the Lemur Leaf Frog Hylomantis || [22]; PMID 23415652; doi:10.1016/j.biochi.2013.02.005; 22. Xi X. Li R. Jiang Y. Lin Y. Wu Y. Zhou M. Xu J. Wang L. Chen T. Shaw C. Medusins: A New Class of Antimicrobial Peptides from the Skin Secretions of Phyllomedusine Frogs Biochimie 2013 95 1288 1296 ||| ...; conditions: cited from earlier work
[2] = test system: Staphylococcus aureus ATCC 25923; parameters: method as in 4 sources, ref Cuesta et al., 2019 (41) ||| ref Charpantier, et al., 1998 (39) ||| ref Raja et al., 2013 (40) ||| ref Reimer et al., 1981 (42); conditions: cited from earlier work
[3] = cited from earlier work
[4] = test system: P. aeruginosa; conditions: cited from earlier work
[5] = test system: Candida albicans; parameters: method as in Cuesta et al., 2019 (41); conditions: broth microdilution; ref Cuesta et al., 2019 (41); cited from earlier work
Protocol: In this work, skin secretion from this amphibian was analysed by molecular cloning and tandem mass spectrometry.

[6] = test system: Klebsiella pneumonia clinical isolate
Protocol: (§1) For the in vitro evaluation of antimicrobial potentials of new biochemical structures identified herein, five synthetic peptides were purchased from a commercial supplier (Biomatik). Approximately 100 mg of each peptide was synthetized by Fmoc technology. […] The lyophilized peptides were kept at −20 °C and diluted in dimethyl sulfoxide (DMSO) before the antimicrobial assays, which were performed according to broth microdilution methodology detailed by Proaño et al.. Minimal inhibitory concentration of the synthetic peptides was determined against the following Gram-positive bacteria: Staphylococcus aureus ATCC 25923 and S. aureus oxacillin resistant strain; Gram-negative bacteria: Escherichia coli ATCC 25922 and Klebsiella pneumonia clinical isolate; and the opportunistic pathogenic yeast Candida albicans. Briefly, peptides were dissolved in DMSO at the following concentrations: 512, 256, 128, 64, 32, 16, 8, 4, 2, 1 […] mg/L. Each bacteria/yeast was cultured until reach log phase and then it was diluted to obtain 1 × 10^6 CFU/mL for bacteria and 1 × 10^5 CFU/mL for the yeast. Assays were prepared in 96 well sterile plates where 198 µL of each microorganism was challenged with 2 μL of the diluted peptides at the serial dilutions mentioned above. […] Another control included 200 μL of Muller Hinton broth without microorganisms to be used as blank with no growth. Seven replicates per peptide concentration was employed and experiments were performed in triplicates. […] MIC was determined as the minimal concentration of peptide required to inhibit the growth of >95% of microbial growth.

[7] = test system: S. aureus Oxacillin Resistant (ORSA Strain 20)
Protocol: as §1

[8] = test system: red blood cells; assay type: cell-based
Protocol: Aiming to determine the toxicity of frog peptides to red blood cells, in vitro assays were performed with different concentrations of each peptide. The diluted peptides (employing the same concentrations than for the antimicrobial assay described above) were incubated with a suspension of red blood cells (2%) (7.7 × 10^6 ± 0.3 × 10^6 cells/mL) at a ratio of 1:1 (v/v), in a total volume of 400 µL for 2 h at 37 °C. After the incubation period, the cells were centrifuged at 3000 rpm for 5 min and transferred to a 96 well plates. The haemolytic activity was monitored at 550 nm and was performed in triplicate. PBS and 2% (v/v) Triton X-100 were used as negative and positive controls, respectively.

[9] = test system: Staphylococcus aureus ATCC 25923; conditions: ATCC 25923, 18 h
Protocol: as §1

[10] = test system: Escherichia coli ATCC 25922; conditions: ATCC 25922, 18 h
Protocol: as §1

[11] = test system: Candida albicans; conditions: 18 h
Protocol: as §1

[12] = ref Reimer et al., 1981 (42), listed as ampicillin
[13] = ref Charpantier, et al., 1998 (39)
[14] = broth microdilution, ref Cuesta et al., 2019 (41)
[15] = broth microdilution, ref Cuesta et al., 2019 (41), listed as dermaseptin-2
[16] = broth microdilution, 1 × 10^6 CFU/mL, 37 °C 18 h, OD 600 nm, MIC = >95% growth inhibition, seven replicates, triplicate experiments

CC1(C)S[C@@H]2[C@H](NC(=O)[C@H](N)c3ccccc3)C(=O)N2[C@H]1C(=O)O [Ampicillin]
MIC E. coli ATCC 25922 ([1]; ref Reimer et al., 1981 (42)): 6.0 **** μM
MIC E. coli ATCC 25922 [1, 12]: 6 µM (≈ 2.1 µg/mL)
MIC S. aureus ATCC 25923 ([2]; ref Reimer et al., 1981 (42)): 0.1 **** μM
MIC S. aureus ATCC 25923 [2, 12]: 0.1 µM (≈ 0.0349 µg/mL)

ALWKDILKNVGKAAGKAVLNTVTDMVNQ-NH2 [Dermaseptin-B4, dermaseptin of P. bicolor]
Concentration at which cytotoxicity was exhibited [3]: 12 µM
MIC P. aeruginosa [4]: 4.6 to 11.6 µM
MIC E. coli ATCC 25922 [1, 13]: 5.00 ** μM
MIC S. aureus ATCC 25923 [2, 13]: 3.00 ** μM
MIC S. aureus ATCC 25923 ([2]; ref Charpantier, et al., 1998 (39), listed as DRS-B4): 3 µM

ALWKTMLKKLGTMALHAGKAALGAAADTISQGTQ [Dermaseptin-S1, dermaseptin of Phyllomedusa sauvagii]
MIC E. coli ATCC 25922 [1, 13]: 46 μM and 46.00 ** μM
MIC S. aureus ATCC 25923 [2, 13]: 60.00 ** μM

ASWKVFLKNIGKAAGKAVLNSVTDMVNQ-NH2 [Dermaseptin-SP2]
MIC C. albicans [5]: 10.71 µM
MIC E. coli ATCC 25922 [1, 14]: 2.68 µM
MIC E. coli ATCC 25922 [1, 15]: 2.68 µM
MIC S. aureus ATCC 25923 [2, 14]: 2.68 µM
MIC S. aureus ATCC 25923 [2, 15]: 2.68 µM
MIC K. pneumoniae Clinical Isolate ([6]; 18 h): 10.71 µM
MIC K. pneumoniae Clinical Isolate [6, 16]: 32 µg/mL
MIC S. aureus Oxacillin Resistant (ORSA Strain 20) ([7]; Oxacillin Resistant (ORSA Strain 20, 18 h)): 2.68 µM
MIC S. aureus Oxacillin Resistant (ORSA Strain 20) [7, 16]: 8 µg/mL
MIC S. aureus Oxacillin Resistant (ORSA Strain 20) ([7]; broth microdilution, 1 × 10^6 CFU/mL, 37 °C 18 h, OD 600 nm, MIC = >95% growth inhibition, seven replicates, triplicate experiments, listed as dermaseptin-2): 2.68 µM

FLSLIPHIVSGVASIAKHFG [Phyloseptin-S1, phylloseptin of P. sauvagii]
MIC E. coli ATCC 25922 ([1]; ref Raja et al., 2013 (40)): 70.00 *** μM
MIC S. aureus ATCC 25923 ([2]; ref Raja et al., 2013 (40)): 6.25 *** μM

FLSLIPHVISAIPHVVNALSNL-NH2 [Phylloseptin-SP1]
Toxicity to red blood cells compared with the dermaseptins [8]: greater toxicity to red blood cells than did the dermaseptins
MIC S. aureus ATCC 25923 [9]: > 217.69 µM
MIC K. pneumoniae Clinical Isolate ([6]; 18 h): > 189.00 µM
MIC E. coli ATCC 25922 [10]: > 217.69 µM
MIC C. albicans [11]: > 217.69 µM

SLRSSIKDMAAAAGRAALNAVNGIVNP-NH2 [Dermaseptin-SP5, novel dermaseptin of A. spurrelli, synthetic amidated peptide]
MIC C. albicans [5]: 384.24 μM and 1024 mg/L
MIC E. coli ATCC 25922 [1, 14]: 96.06 μM and 256 mg/L
MIC S. aureus ATCC 25923 [2, 14]: > 192.12 μM and > 512 mg/L

SLWSSIKDMAAAAGRAALNAVNGILNP-NH2 [Dermaseptin-SP4]
MIC K. pneumoniae Clinical Isolate ([6]; 18 h): 189.00 µM

SLWSSIKDMAAAAGRAALNAVNGIVNP-NH2 [Dermaseptin-SP3]
MIC K. pneumoniae Clinical Isolate ([6]; 18 h): > 189.98 µM
